Like-named read-outs stand apart in the source and are kept apart here.
Columns and labels:
[1] = molecular target: T1, unphosphorylated VEGF-R2Δ50 (FLVK) (Homo sapiens, UniProt P35968, DEL940-989/E990V); test: VEGF-R2 coupled spectrophotometric assay, unphosphorylated VEGF-R2Δ50 (FLVK); assay type: biochemical; conditions: for inhibition at 0.05 µM: 50 nM compound, read-out: FLVK (% inh @ 50 nM); for inhibition at 0.05 µM / Ki: unphosphorylated VEGF-R2Δ50; for inhibition at 0.1 µM: percent inhibition at 100 nM, library amides from Example 101 (R101), crude mixtures in DMSO, read-out: FLVK (% @ 100 nM)
T1 construct: VEGF-R2Δ50 contains residues 806–939 and 990–1171; made in house; host or cells: baculovirus/insect cell system
How it was run: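 Baculovirus-expressed human VEGF-R2Δ50 (kinase insert partly deleted, E990V), unphosphorylated form; ADP production coupled via PK/LDH to NADH oxidation, read at 340 nm. 20 mM poly(E4Y1), 3 mM ATP, 60 mM MgCl2, 2 mM MnCl2, 200 mM HEPES pH 7.5; 5–40 nM enzyme. Ki from Morrison tight-binding fit.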

KDR (VEGFR2) = molecular target: T2, KDR (VEGFR2) (Homo sapiens, UniProt P35968); test: KDR (VEGFR2) phosphorylation in PAE-KDR cells assay; assay type: cell-based; conditions: PAE cells overexpressing human KDR, VEGF stimulated; read-out: PAE KDR autophos IC50 (nM) AVG
T2 construct: expressed in transfected cells; host or cells: porcine aorta endothelial (PAE)-KDR cells
Protocol: KDR (VEGFR2) Phosphorylation in PAE-KDR Cells Assay
This assay determines the ability of a test compound to inhibit the autophosphorylation of KDR in porcine aorta endothelial (PAE)-KDR cells. PAE cells that overexpress human KDR were used in this assay. The cells were cultured in Ham's F12 media supplemented with 10% fetal bovine serum (FBS) and 400 ug/mL G418. Thirty thousands cells were seeded into each well of a 96-well plate in 75 μL of growth media and allowed to attach for 6 hours at 37° C. Cells were then exposed to the starvation media (Ham's F12 media supplemented with 0.1% FBS) for 16 hours. After the starvation period was over, 10 μL of test agent in 5% DMSO in starvation media were added to the test wells and 10 μL of the vehicle (5% DMSO in starvation media) were added into the control wells. The final DMSO concentration in each well was 0.5%. Plates were incubated at 37° C. for 1 hour and the cells were then stimulated with 500 ng/ml VEGF (commercially available from R & D System) in the presence of 2 mM Na3VO4 for 8 minutes. The cells were washed once with 1 mm Na3VO4 in HBSS and lysed by adding 50 μL per well of lysis buffer. One hundred μL of dilution buffer were then added to each well and the diluted cell lysate was transferred to a 96-well goat ant-rabbit coated plate (commercially available from Pierce) which was pre-coated with Rabbit anti Human Anti-flk-1 C-20 antibody (commercially available from Santa Cruz). The plates were incubated at room temperature for 2 hours and washed seven times with 1% Tween 20 in PBS. HRP-PY20 (commercially available from Santa Cruz) was diluted and added to the plate for a 30-minute incubation. Plates were then washed again and TMB peroxidase substrate (commercially available from Kirkegaard & Perry) was added for a 10-minute incubation. One hundred μL of 0.09 N H2SO4 was added to each well of the 96-well plates to stop the reaction. Phosphorylation status was assessed by spectrophotometer reading at 450 nm. IC50 values were calculated by curve fitting using a four-parameter analysis.

Huvec = test: bFGF Huvec proliferation; assay type: cell-based, human; conditions: Homo sapiens, HUVEC
[2] = tested on: human umbilical vein endothelial cells (HUVEC); test: HUVEC+VEGF proliferation assay; assay type: cell-based; conditions: Homo sapiens, HUVEC; VEGF 6 ng/mL, 72 h, MTT
How it was run: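 Exponentially growing passage 3–4 HUVEC were starved 24 h in F12K + 1% FBS, given compound (0.1% final DMSO) 1 h before 6 ng/mL final VEGF, then cultured 72 h. Proliferation was read as MTT dye reduction (4 h exposure), absorbance at 595 nm.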

PDGFRβ = molecular target: T3, PDGFRβ (Homo sapiens, UniProt P09619); test: PAE-PDGFRβ phosphorylation in PAE-PDGFRB cells assay; assay type: cell-based
T3 construct: expressed in transfected cells; host or cells: porcine aorta endothelial (PAE)-PDGFRβ cells
How it was run: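 PAE cells overexpressing human PDGFRβ, serum-starved 16 h (0.1% FBS), were given compound for 1 h at 37 °C (0.5% DMSO) and then stimulated with 1 μg/mL PDGF-BB plus 2 mM Na3VO4 for 8 min. Receptor autophosphorylation was read by capture ELISA (HRP-PY20, TMB, 450 nm); IC50 from 4-parameter fit.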

FGF-R1 = molecular target: T4, FGF-R1 (Homo sapiens, UniProt P11362, C488A/C584S/L457V); test: FGF-R spectrophotometric assay; assay type: biochemical; conditions: percent inhibition at 100 nM; library amides from Example 101 (R101), crude mixtures in DMSO
T4 construct: starting from the endogenous methionine residue 456 to glutamate 766; made in house; host or cells: baculovirus vector expression system
Protocol: FGF-R1 Construct for Assay:
The intracellular kinase domain of human FGF-R1 was expressed using the baculovirus vector expression system starting from the endogenous methionine residue 456 to glutamate 766, according to the residue numbering system of Mohammadi et al., Mol. Cell. Bio., 16, 977–989 (1996). In addition, the construct also has the following 3 amino acid substitutions: L457V, C488A, and C584S.
The spectrophotometric assay was carried out as described above for VEGF-R2, except for the following changes in concentration: FGF-R=50 nM, ATP=2 mM, and poly(E4Y1)=15 mM.

[3] = PAE cells overexpressing human PDGFRβ, PDGF-BB stimulated, read-out: PAE PDGFR autophos IC50 (nM) AVG
[4] = library amides from Example 101 (R101), crude mixtures in DMSO, read-out: PAE PDGFR autophos IC50

T3 sequence (P09619 33-1106): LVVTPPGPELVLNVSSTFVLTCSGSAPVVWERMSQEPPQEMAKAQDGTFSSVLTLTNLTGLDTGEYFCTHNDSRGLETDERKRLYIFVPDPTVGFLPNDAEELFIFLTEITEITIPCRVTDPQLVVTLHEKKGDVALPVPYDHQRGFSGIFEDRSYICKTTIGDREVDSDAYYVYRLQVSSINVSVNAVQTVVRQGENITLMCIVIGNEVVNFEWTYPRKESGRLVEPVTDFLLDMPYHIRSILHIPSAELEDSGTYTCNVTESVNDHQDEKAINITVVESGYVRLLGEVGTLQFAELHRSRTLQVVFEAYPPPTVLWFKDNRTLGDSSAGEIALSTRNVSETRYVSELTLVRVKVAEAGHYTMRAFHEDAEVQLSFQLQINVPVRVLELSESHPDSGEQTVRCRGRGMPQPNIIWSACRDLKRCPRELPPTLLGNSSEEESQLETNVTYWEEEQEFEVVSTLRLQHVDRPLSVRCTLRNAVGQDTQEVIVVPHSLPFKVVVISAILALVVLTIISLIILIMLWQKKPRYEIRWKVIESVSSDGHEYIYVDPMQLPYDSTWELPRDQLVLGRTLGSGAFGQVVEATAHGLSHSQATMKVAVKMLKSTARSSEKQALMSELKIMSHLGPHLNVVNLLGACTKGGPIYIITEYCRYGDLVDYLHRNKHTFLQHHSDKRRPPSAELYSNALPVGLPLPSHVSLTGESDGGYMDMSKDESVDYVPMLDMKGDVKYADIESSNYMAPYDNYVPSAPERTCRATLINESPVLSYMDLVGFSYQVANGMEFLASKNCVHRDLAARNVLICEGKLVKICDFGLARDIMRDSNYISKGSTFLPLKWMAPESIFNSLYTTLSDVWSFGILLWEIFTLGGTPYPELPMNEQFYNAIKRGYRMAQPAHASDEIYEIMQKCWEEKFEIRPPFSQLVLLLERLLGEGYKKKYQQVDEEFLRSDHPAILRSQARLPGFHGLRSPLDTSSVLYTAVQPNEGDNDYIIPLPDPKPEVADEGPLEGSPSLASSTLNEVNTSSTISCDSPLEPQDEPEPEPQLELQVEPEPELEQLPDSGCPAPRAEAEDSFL
T1 sequence (P35968 with tags, fused parts or gaps DEL940-989/E990V limits assumed): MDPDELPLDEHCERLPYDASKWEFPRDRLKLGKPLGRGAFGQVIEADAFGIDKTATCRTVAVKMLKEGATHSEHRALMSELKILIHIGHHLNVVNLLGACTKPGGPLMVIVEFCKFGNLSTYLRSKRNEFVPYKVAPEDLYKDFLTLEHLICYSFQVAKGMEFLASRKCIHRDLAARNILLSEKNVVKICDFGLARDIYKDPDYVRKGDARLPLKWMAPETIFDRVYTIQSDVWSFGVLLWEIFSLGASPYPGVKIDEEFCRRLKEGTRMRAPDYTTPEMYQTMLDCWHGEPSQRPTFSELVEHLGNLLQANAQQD
T4 sequence (P11362 456-766 L457V/C488A/C584S): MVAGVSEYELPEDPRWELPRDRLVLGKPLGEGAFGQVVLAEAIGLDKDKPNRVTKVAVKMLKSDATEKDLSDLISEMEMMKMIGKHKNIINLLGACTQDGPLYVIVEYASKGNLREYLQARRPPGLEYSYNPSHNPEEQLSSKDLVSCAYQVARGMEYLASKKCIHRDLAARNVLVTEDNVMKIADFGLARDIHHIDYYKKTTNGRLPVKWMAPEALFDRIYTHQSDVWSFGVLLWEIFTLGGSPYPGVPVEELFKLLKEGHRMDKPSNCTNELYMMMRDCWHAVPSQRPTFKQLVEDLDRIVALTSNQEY
T2 sequence (P35968 20-1356): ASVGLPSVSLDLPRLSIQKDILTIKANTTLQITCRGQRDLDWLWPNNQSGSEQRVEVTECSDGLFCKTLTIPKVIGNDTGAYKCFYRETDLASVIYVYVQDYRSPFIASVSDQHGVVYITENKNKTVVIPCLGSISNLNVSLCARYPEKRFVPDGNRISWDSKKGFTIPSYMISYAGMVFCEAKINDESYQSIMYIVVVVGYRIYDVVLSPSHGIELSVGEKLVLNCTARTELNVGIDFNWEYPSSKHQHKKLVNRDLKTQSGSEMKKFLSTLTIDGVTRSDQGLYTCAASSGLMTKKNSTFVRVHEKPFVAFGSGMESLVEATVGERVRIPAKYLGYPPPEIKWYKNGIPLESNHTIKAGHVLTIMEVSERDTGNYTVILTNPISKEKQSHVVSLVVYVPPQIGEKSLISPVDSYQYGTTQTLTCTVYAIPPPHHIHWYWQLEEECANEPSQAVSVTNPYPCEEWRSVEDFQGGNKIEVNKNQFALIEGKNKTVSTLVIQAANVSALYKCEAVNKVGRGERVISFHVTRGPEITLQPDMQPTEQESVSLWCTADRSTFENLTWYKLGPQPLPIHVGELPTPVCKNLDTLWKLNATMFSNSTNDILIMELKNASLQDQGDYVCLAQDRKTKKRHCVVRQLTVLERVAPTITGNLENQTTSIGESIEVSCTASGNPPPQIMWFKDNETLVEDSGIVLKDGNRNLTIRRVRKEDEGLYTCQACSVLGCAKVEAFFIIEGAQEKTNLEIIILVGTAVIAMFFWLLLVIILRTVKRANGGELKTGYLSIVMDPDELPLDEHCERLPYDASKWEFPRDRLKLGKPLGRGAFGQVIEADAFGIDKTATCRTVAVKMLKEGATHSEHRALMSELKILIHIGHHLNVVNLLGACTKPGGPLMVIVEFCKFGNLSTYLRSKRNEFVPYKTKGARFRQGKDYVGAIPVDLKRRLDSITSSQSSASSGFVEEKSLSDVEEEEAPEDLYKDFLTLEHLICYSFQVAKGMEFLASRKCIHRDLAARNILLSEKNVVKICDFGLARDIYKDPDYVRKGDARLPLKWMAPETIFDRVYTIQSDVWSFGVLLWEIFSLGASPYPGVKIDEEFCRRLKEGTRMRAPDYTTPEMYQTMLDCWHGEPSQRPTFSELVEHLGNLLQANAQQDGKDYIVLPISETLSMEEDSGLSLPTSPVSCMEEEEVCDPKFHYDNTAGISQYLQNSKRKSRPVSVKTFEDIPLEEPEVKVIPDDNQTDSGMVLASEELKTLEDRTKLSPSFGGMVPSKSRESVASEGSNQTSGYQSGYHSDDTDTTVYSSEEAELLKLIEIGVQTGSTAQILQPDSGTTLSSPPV

For `Cc1c(C(=O)NCC2CC2)c2ccc(Oc3ccnc4cc(-c5nc(C(C)(C)O)cs5)sc34)cc2n1C` [Example 57, 6-{2-[4(1-Hydroxy-1-methyl-ethyl)-thiazol-2-yl]-thieno[3,2-b]pyridin-7-yloxy)-1,2-dimethyl-1H-indole-3-carboxylic acid cyclopropylmethyl-amide], the inhibition at 0.05 µM [1] was 63%, the Ki [1] was 9.8 nM and the IC50 (KDR (VEGFR2)) was 87 nM.

`CNC(=O)c1c(C)sc2cc(Oc3ccnc4cc(-c5ccnn5C)sc34)ccc12` [Example 10, 2-Methyl-6-(2-[2-methyl-2H-pyrazol-3-yl]thieno[3,2-b]pyridin-7-yloxy)benzo[b]thiophene-3-carboxylic acid methylamide] gave an IC50 (Huvec) of 99 nM, an inhibition at 0.05 µM [1] of 74% and a Ki [1] of 2.31 nM. For the same compound, the IC50 [2] was 10 nM, the IC50 (PDGFRβ; [3]) was 451 nM and the melting point was 210 to 212 °C.

For `Cc1oc2cc(Oc3ccnc4ccsc34)ccc2c1C(=O)NCCOC(C)C` [drawing 361], the inhibition at 0.1 µM [1] was 94%, the IC50 (PDGFRβ; [4]) was 61 nM and the inhibition at 0.1 µM (FGF-R1) was 0%.

With `Cc1oc2cc(Oc3ccnc4ccsc34)ccc2c1C(=O)Nc1ccc2cn[nH]c2c1` the inhibition at 0.1 µM [1] was 87%, the IC50 (PDGFRβ; [4]) was 57 nM and the inhibition at 0.1 µM (FGF-R1) was 0%.

With `Cc1oc2cc(Oc3ccnc4ccsc34)ccc2c1C(=O)Nc1cccc(-c2cc[nH]n2)c1` the inhibition at 0.1 µM [1] was 94%, the IC50 (PDGFRβ; [4]) was > 100 nM and the inhibition at 0.1 µM (FGF-R1) was 0%.

`CNC(=O)c1c(C)sc2cc(Oc3ccnc4cc(C(=O)N5C[C@@H](O)[C@@H](O)C5)sc34)ccc12` [Example 7, 6-(2-[meso-3,4-dihydroxypyrrolidine-1-carbonyl]thieno[3,2-b]pyridin-7-yloxy)-2-methylbenzo[b]thiophene-3-carboxylic acid methylamide] showed an IC50 (Huvec) of 2470 nM, an inhibition at 0.05 µM [1] of 95% and a Ki [1] of 1.04 nM. For the same compound, the IC50 (KDR (VEGFR2)) was 1.95 nM and the IC50 [2] was 1.21 nM.

With `Cc1oc2cc(Oc3ccnc4ccsc34)ccc2c1C(=O)Nc1ccc2[nH]ncc2c1` the inhibition at 0.1 µM [1] was 96%, the IC50 (PDGFRβ; [4]) was ~100 nM and the inhibition at 0.1 µM (FGF-R1) was 0%.

With `Cc1oc2cc(Oc3ccnc4ccsc34)ccc2c1C(=O)Nc1nncs1` the inhibition at 0.1 µM [1] was 75%, the IC50 (PDGFRβ; [4]) was > 100 nM and the inhibition at 0.1 µM (FGF-R1) was 35%.

In the case of `Cc1oc2cc(Oc3ccnc4ccsc34)ccc2c1C(=O)Nc1cc(C(C)(C)C)[nH]n1`, the inhibition at 0.1 µM [1] is reported as 100%, the IC50 (PDGFRβ; [4]) is reported as > 100 nM and the inhibition at 0.1 µM (FGF-R1) is reported as 56%.

With `Cc1oc2cc(Oc3ccnc4ccsc34)ccc2c1C(=O)NCC(c1ccc[nH]1)C(F)(F)F` (centres unmarked) the inhibition at 0.1 µM [1] was 85%, the IC50 (PDGFRβ; [4]) was > 100 nM and the inhibition at 0.1 µM (FGF-R1) was 3%.

For `CNC(=O)c1c(C)sc2cc(Oc3ccnc4cc(C(=O)N5CC(O)C5)sc34)ccc12` [Example 9, 6-(2-[3-Hydroxyazetidine-1-carbonyl]thieno[3,2-b]pyridin-7-yloxy)-2-methylbenzo[b]thiophene-3-carboxylic acid methylamide], the IC50 (Huvec) was 135 nM, the inhibition at 0.05 µM [1] was 83% and the Ki [1] was 1.57 nM. The IC50 [2] was 13 nM, the IC50 (PDGFRβ; [3]) was 313 nM and the melting point was 237 to 239 °C.

With `Cc1oc2cc(Oc3ccnc4ccsc34)ccc2c1C(=O)Nc1cnc2ccccc2c1` the inhibition at 0.1 µM [1] was 85%, the IC50 (PDGFRβ; [4]) was > 100 nM and the inhibition at 0.1 µM (FGF-R1) was 7%.

For `Cc1oc2cc(Oc3ccnc4ccsc34)ccc2c1C(=O)Nc1ccc2ncsc2c1`, the inhibition at 0.1 µM [1] was 96%, the IC50 (PDGFRβ; [4]) was > 100 nM and the inhibition at 0.1 µM (FGF-R1) was 0%.

With `Cc1oc2cc(Oc3ccnc4ccsc34)ccc2c1C(=O)Nc1n[nH]c2cccc(F)c12` the inhibition at 0.1 µM [1] was 61%, the IC50 (PDGFRβ; [4]) was > 100 nM and the inhibition at 0.1 µM (FGF-R1) was 0%.

`Cc1cc(NC(=O)c2c(C)oc3cc(Oc4ccnc5ccsc45)ccc23)n[nH]1` [drawing 331] gave an inhibition at 0.1 µM [1] of 100%, an IC50 (PDGFRβ; [4]) of 46 nM and an inhibition at 0.1 µM (FGF-R1) of 4%.

In the case of `Cc1oc2cc(Oc3ccnc4ccsc34)ccc2c1C(=O)Nc1nnc(C2CC2)s1`, the inhibition at 0.1 µM [1] is reported as 100%, the IC50 (PDGFRβ; [4]) is reported as > 100 nM and the inhibition at 0.1 µM (FGF-R1) is reported as 4%.

For `COc1ccc(NC(=O)c2c(C)oc3cc(Oc4ccnc5ccsc45)ccc23)c(OC)n1`, the inhibition at 0.1 µM [1] was 92%, the IC50 (PDGFRβ; [4]) was > 100 nM and the inhibition at 0.1 µM (FGF-R1) was 1%.

— US7045528B2, “Benzofused heterozryl amide derivatives of thienopyridines useful as therapeutic agents, pharmaceutical compositions including the same, and methods for their use” (Agouron Pharmaceuticals, Inc., priority 2002, dated 2006)
